# Laboratory results: US11058661B2, “Compositions and methods for lowering triglycerides in a subject on concomitant statin therapy and having hsCRP levels of at least about 2 mg/L” (priority 2018, dated 2021)
# Key:
# [1] = AAMI pilot study: essential fatty acids in plasma and RBC; assay type: in vivo, human
# Protocol: Blood samples (10 mL) were collected at Visit 1 (screening) and at Visits 4, 5 and 6. Analysis was performed by MSR Lipid Analysis, Scottish Crop Research Institute, Dundee, UK. The screening sample acted as baseline for the EFA measurements. Lipid was extracted from plasma, serum and RBC suspensions and converted into fatty acid methyl esters which were analyzed by gas chromatography to give fatty acid profiles as micrograms fatty acid per gram of sample (μgFA/g) and normalized area percent. RBC and plasma EFA data were collected at baseline, Day 14, 28 and 42 and summarized by visit for each treatment group. Change from baseline and percent change from baseline were also summarized. ANCOVA comparison of ethyl-EPA dose groups and ethyl-EPA versus placebo was performed.
# [2] = tested on: statin-treated patients with fasting TG ≥200 and <500 mg/dL; assay: ANCHOR study, entire population: fasting TG; assay type: in vivo, human; conditions: 4 g/day
# Protocol: A multi-center, placebo-controlled, randomized, double-blind, 12-week study is performed to evaluate the efficacy and safety of >96% E-EPA in patients with fasting triglyceride levels ≥200 mg/dl and <500 mg/dl despite statin therapy (the mean of two qualifying entry values needs to be ≥185 mg/dl and at least one of the values needs to be ≥200 mg/dl). The primary objective of the study is to determine the efficacy of >96% E-EPA 2 g daily and 4 g daily, compared to placebo, in lowering fasting TG levels in patients with high risk for cardiovascular disease and with fasting TG levels ≥200 mg/dL and <500 mg/dL, despite treatment to LDL-C goal on statin therapy.
# The population for this study is men and women >18 years of age with a body mass index ≤45 kg/m^2 with fasting TG levels greater than or equal to 200 mg/dl and less than 500 mg/dl and on a stable does of statin therapy (with or without ezetimibe). The statin must be atorvastatin, rosuvastatin or simvastatin. The dose of statin must be stable for ≥4 weeks prior to the LDL-C/TG baseline qualifying measurement for randomization. The statin dose will be optimal such that the patients are at their LDL-C goal at the LDL-C/TG baseline qualifying measurements. The same statin at the same dose will be continued until the study ends. […]
structure (smiles),measurement,setting,value
"CC/C=C\C/C=C\C/C=C\C/C=C\C/C=C\CCCC(=O)OCC [Icosapent Ethyl, ethyl eicosapentaenoate]","DHA LS Mean, 1 g versus 4 g",[1]; RBC,1.0 µg/g
same,"DHA LS Mean, 2 g versus 4 g",[1]; RBC,1.0 µg/g
same,"DPAn-3 LS Mean, 1 g versus 4 g",[1]; RBC,-6.2 µg/g
same,"DPAn-3 LS Mean, 2 g versus 4 g",[1]; RBC,-2.5 µg/g
same,AA Mean (SD) change from Baseline,"[1]; RBC, Day 14, 1 g",−8.1 (21.95) μg/g
same,DGLA Mean (SD) change from Baseline,"[1]; RBC, Day 14, 1 g",−2.7 (3.82) μg/g
same,DHA Mean (SD) change from Baseline,"[1]; RBC, Day 14, 1 g",−4.6 (9.76) μg/g
same,DPAn-3 Mean (SD) change from Baseline,"[1]; RBC, Day 14, 1 g",0.9 (5.03) μg/g
same,EPA/AA Mean (SD) change from Baseline,"[1]; RBC, Day 14, 1 g",0.1 (0.04) μg/g
same,AA Mean (SD) change from Baseline,"[1]; RBC, Day 14, 2 g",−3.1 (25.84) μg/g
same,DGLA Mean (SD) change from Baseline,"[1]; RBC, Day 14, 2 g",−2.6 (3.54) μg/g
same,DHA Mean (SD) change from Baseline,"[1]; RBC, Day 14, 2 g",−2.0 (9.46) μg/g
same,DPAn-3 Mean (SD) change from Baseline,"[1]; RBC, Day 14, 2 g",5.6 (6.28) μg/g
same,EPA/AA Mean (SD) change from Baseline,"[1]; RBC, Day 14, 2 g",0.2 (0.04) μg/g
same,DGLA Mean (SD) change from Baseline,"[1]; RBC, Day 14, 4 g",−5.3 (4.10) μg/g
same,DHA Mean (SD) change from Baseline,"[1]; RBC, Day 14, 4 g",−6.9 (9.13) μg/g
same,DPAn-3 Mean (SD) change from Baseline,"[1]; RBC, Day 14, 4 g",5.4 (5.38) μg/g
same,EPA/AA Mean (SD) change from Baseline,"[1]; RBC, Day 14, 4 g",0.3 (0.07) μg/g
same,AA Mean (SD) change from Baseline,"[1]; RBC, Day 28, 1 g",−17.0 (20.69) μg/g
same,DGLA Mean (SD) change from Baseline,"[1]; RBC, Day 28, 1 g",−3.8 (3.31) μg/g
same,DHA Mean (SD) change from Baseline,"[1]; RBC, Day 28, 1 g",−6.4 (11.57) μg/g
same,DPAn-3 Mean (SD) change from Baseline,"[1]; RBC, Day 28, 1 g",3.3 (5.42) μg/g
same,EPA/AA Mean (SD) change from Baseline,"[1]; RBC, Day 28, 1 g",0.1 (0.05) μg/g
same,DGLA Mean (SD) change from Baseline,"[1]; RBC, Day 28, 2 g",−4.5 (3.58) μg/g
same,DHA Mean (SD) change from Baseline,"[1]; RBC, Day 28, 2 g",−6.2 (9.34) μg/g
same,DPAn-3 Mean (SD) change from Baseline,"[1]; RBC, Day 28, 2 g",9.4 (6.74) μg/g
same,EPA/AA Mean (SD) change from Baseline,"[1]; RBC, Day 28, 2 g",0.02 (0.06) μg/g
same,DGLA Mean (SD) change from Baseline,"[1]; RBC, Day 28, 4 g",−7.1 (4.63) μg/g
same,DHA Mean (SD) change from Baseline,"[1]; RBC, Day 28, 4 g",−8.7 (11.63) μg/g
same,EPA/AA Mean (SD) change from Baseline,"[1]; RBC, Day 28, 4 g",0.4 (0.11) μg/g
same,DGLA Mean (SD) change from Baseline,"[1]; RBC, Day 42, 1 g",−3.5 (4.51) μg/g
same,DHA Mean (SD) change from Baseline,"[1]; RBC, Day 42, 1 g",−7.0 (12.20) μg/g
same,DPAn-3 Mean (SD) change from Baseline,"[1]; RBC, Day 42, 1 g",6.5 (6.19) μg/g
same,EPA/AA Mean (SD) change from Baseline,"[1]; RBC, Day 42, 1 g",0.1 (0.06) μg/g
same,DGLA Mean (SD) change from Baseline,"[1]; RBC, Day 42, 2 g",−5.3 (3.65) μg/g
same,DHA Mean (SD) change from Baseline,"[1]; RBC, Day 42, 2 g",−6.3 (9.42) μg/g
same,EPA/AA Mean (SD) change from Baseline,"[1]; RBC, Day 42, 2 g",0.3 (0.06) μg/g
same,DGLA Mean (SD) change from Baseline,"[1]; RBC, Day 42, 4 g",−8.0 (4.98) μg/g
same,EPA/AA Mean (SD) change from Baseline,"[1]; RBC, Day 42, 4 g",0.4 (0.14) μg/g
same,"DPAn-3 LS Mean, 2 g versus 4 g",[1]; plasma,-9.5 µg/g
same,"EPA values, change from baseline","[1]; plasma and RBC, to Day 42, 1, 2 and 4 g groups",increased substantially from baseline
same,AA Mean (SD) change from Baseline,"[1]; plasma, Day 14, 1 g",−9.7 (22.20) μg/g
same,DHA Mean (SD) change from Baseline,"[1]; plasma, Day 14, 1 g",−6.4 (13.30) μg/g
same,DPAn-3 Mean (SD) change from Baseline,"[1]; plasma, Day 14, 1 g",7.5 (5.11) μg/g
same,EPA/AA Mean (SD) change from Baseline,"[1]; plasma, Day 14, 1 g",0.3 (0.4) μg/g
same,DHA Mean (SD) change from Baseline,"[1]; plasma, Day 14, 2 g",−5.4 (14.29) μg/g
same,EPA/AA Mean (SD) change from Baseline,"[1]; plasma, Day 14, 2 g",0.6 (0.23) μg/g
same,EPA/AA Mean (SD) change from Baseline,"[1]; plasma, Day 14, 4 g",1.1 (0.28) μg/g
same,DHA Mean (SD) change from Baseline,"[1]; plasma, Day 28, 1 g",−6.6 (15.53) μg/g
same,DPAn-3 Mean (SD) change from Baseline,"[1]; plasma, Day 28, 1 g",3.9 (5.62) μg/g
same,EPA/AA Mean (SD) change from Baseline,"[1]; plasma, Day 28, 1 g",0.3 (0.20) μg/g
same,DHA Mean (SD) change from Baseline,"[1]; plasma, Day 28, 2 g",−8.1 (15.82) μg/g
same,EPA/AA Mean (SD) change from Baseline,"[1]; plasma, Day 28, 2 g",0.8 (0.35) μg/g
same,EPA/AA Mean (SD) change from Baseline,"[1]; plasma, Day 28, 4 g",1.3 (0.42) μg/g
same,AA Mean (SD) change from Baseline,"[1]; plasma, Day 42, 1 g",−8.7 (31.35) μg/g
same,DGLA Mean (SD) change from Baseline,"[1]; plasma, Day 42, 1 g",−9.4 (9.41) μg/g
same,DHA Mean (SD) change from Baseline,"[1]; plasma, Day 42, 1 g",−5.4 (18.17) μg/g
same,EPA/AA Mean (SD) change from Baseline,"[1]; plasma, Day 42, 1 g",0.3 (0.24) μg/g
same,DHA Mean (SD) change from Baseline,"[1]; plasma, Day 42, 2 g",−6.0 (16.69) μg/g
same,EPA/AA Mean (SD) change from Baseline,"[1]; plasma, Day 42, 2 g",0.7 (0.29) μg/g
same,DPAn-3 Mean (SD) change from Baseline,"[1]; plasma, Day 42, 4 g",32.0 (16.01) μg/g
same,EPA/AA Mean (SD) change from Baseline,"[1]; plasma, Day 42, 4 g",1.3 (0.45) μg/g
same,reduction of median TG from baseline compared with placebo,[2],21.5%
